Test results published in PubChem BioAssay (NCI).
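Protocol summary: plate cells (96-well), add compound at 5 concentrations, incubate 48 h, interpolate endpoints linearly. TGI denotes the concentration required for complete inhibition of growth.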

Key:
Test in all cases: NCI-60 cell line screen, 48 h
KM12 colon = tested on: KM12 colon
NCI-H226 lung = tested on: NCI-H226 lung
CAKI-1 renal = tested on: CAKI-1 renal
IGROV1 ovarian = tested on: IGROV1 ovarian
HOP-92 NSCLC = tested on: HOP-92 NSCLC
SK-MEL-28 melanoma = tested on: SK-MEL-28 melanoma
SK-OV-3 ovarian = tested on: SK-OV-3 ovarian
SF-268 CNS = tested on: SF-268 CNS
MDA-MB-231 breast = tested on: MDA-MB-231 breast
BT-549 breast = tested on: BT-549 breast
ACHN renal = tested on: ACHN renal
UACC-257 melanoma = tested on: UACC-257 melanoma
786-0 renal = tested on: 786-0 renal
UO-31 renal = tested on: UO-31 renal
SR leukemia = tested on: SR leukemia
OVCAR-4 ovarian = tested on: OVCAR-4 ovarian
MCF7 breast = tested on: MCF7 breast
NCI/ADR-RES ovarian = tested on: NCI/ADR-RES ovarian
RPMI-8226 leukemia = tested on: RPMI-8226 leukemia
SK-MEL-2 melanoma = tested on: SK-MEL-2 melanoma
LOX IMVI melanoma = tested on: LOX IMVI melanoma
SF-295 CNS = tested on: SF-295 CNS
NCI-H522 lung = tested on: NCI-H522 lung
SN12C renal = tested on: SN12C renal
SK-MEL-5 melanoma = tested on: SK-MEL-5 melanoma
NCI-H460 lung = tested on: NCI-H460 lung
MOLT-4 leukemia = tested on: MOLT-4 leukemia
COLO 205 colon = tested on: COLO 205 colon
PC-3 prostate = tested on: PC-3 prostate
MDA-N = tested on: MDA-N
A549 NSCLC = tested on: A549 NSCLC
OVCAR-5 ovarian = tested on: OVCAR-5 ovarian
MDA-MB-435 = tested on: MDA-MB-435
HCC-2998 colon = tested on: HCC-2998 colon
U251 CNS = tested on: U251 CNS
HS 578T breast = tested on: HS 578T breast
OVCAR-3 ovarian = tested on: OVCAR-3 ovarian
HCT-15 colon = tested on: HCT-15 colon
EKVX NSCLC = tested on: EKVX NSCLC
SW-620 colon = tested on: SW-620 colon
SNB-19 CNS = tested on: SNB-19 CNS
K-562 leukemia = tested on: K-562 leukemia
OVCAR-8 ovarian = tested on: OVCAR-8 ovarian
UACC-62 melanoma = tested on: UACC-62 melanoma
NCI-H23 lung = tested on: NCI-H23 lung
HT29 colon = tested on: HT29 colon
HCT-116 colon = tested on: HCT-116 colon
TK-10 renal = tested on: TK-10 renal
M14 melanoma = tested on: M14 melanoma
HOP-62 NSCLC = tested on: HOP-62 NSCLC
RXF 393 renal = tested on: RXF 393 renal
HL-60(TB) leukemia = tested on: HL-60(TB) leukemia
A498 renal = tested on: A498 renal
MALME-3M melanoma = tested on: MALME-3M melanoma
DU-145 prostate = tested on: DU-145 prostate
SF-539 CNS = tested on: SF-539 CNS
SNB-75 CNS = tested on: SNB-75 CNS
CCRF-CEM leukemia = tested on: CCRF-CEM leukemia
T-47D breast = tested on: T-47D breast

With `NS(=O)(=O)c1cc(S(N)(=O)=O)c(NC(=O)Nc2ccc(Cl)c(Cl)c2)c(Cl)c1Cl` the TGI (KM12 colon) was > 100 µM, the TGI (NCI-H226 lung) was > 100 µM and the TGI (CAKI-1 renal) was > 100 µM. For the same compound, the TGI (IGROV1 ovarian) was > 100 µM, the TGI (HOP-92 NSCLC) was > 100 µM and the TGI (SK-MEL-28 melanoma) was > 100 µM. The TGI (SK-OV-3 ovarian) was > 100 µM, the TGI (SF-268 CNS) was > 100 µM and the TGI (MDA-MB-231 breast) was > 100 µM. The TGI (BT-549 breast) was > 100 µM, the TGI (ACHN renal) was > 100 µM and the TGI (UACC-257 melanoma) was > 100 µM. For the same compound, the TGI (786-0 renal) was > 100 µM, the TGI (UO-31 renal) was > 100 µM and the TGI (SR leukemia) was > 100 µM. For the same compound, the TGI (OVCAR-4 ovarian) was > 100 µM, the TGI (MCF7 breast) was > 100 µM and the TGI (NCI/ADR-RES ovarian) was > 100 µM. For the same compound, the TGI (RPMI-8226 leukemia) was > 100 µM, the TGI (SK-MEL-2 melanoma) was > 100 µM and the TGI (LOX IMVI melanoma) was > 100 µM. For the same compound, the TGI (SF-295 CNS) was > 100 µM, the TGI (NCI-H522 lung) was > 100 µM and the TGI (SN12C renal) was > 100 µM. For the same compound, the TGI (SK-MEL-5 melanoma) was > 100 µM, the TGI (NCI-H460 lung) was > 100 µM and the TGI (MOLT-4 leukemia) was > 100 µM. The TGI (COLO 205 colon) was > 100 µM, the TGI (PC-3 prostate) was > 100 µM and the TGI (MDA-N) was > 100 µM. For the same compound, the TGI (A549 NSCLC) was > 100 µM, the TGI (OVCAR-5 ovarian) was > 100 µM and the TGI (MDA-MB-435) was > 100 µM. For the same compound, the TGI (HCC-2998 colon) was > 100 µM, the TGI (U251 CNS) was > 100 µM and the TGI (HS 578T breast) was > 100 µM. For the same compound, the TGI (OVCAR-3 ovarian) was > 100 µM, the TGI (HCT-15 colon) was > 100 µM and the TGI (EKVX NSCLC) was > 100 µM. For the same compound, the TGI (SW-620 colon) was > 100 µM, the TGI (SNB-19 CNS) was > 100 µM and the TGI (K-562 leukemia) was > 100 µM. For the same compound, the TGI (OVCAR-8 ovarian) was > 100 µM, the TGI (UACC-62 melanoma) was > 100 µM and the TGI (NCI-H23 lung) was > 100 µM. For the same compound, the TGI (HT29 colon) was > 100 µM, the TGI (HCT-116 colon) was > 100 µM and the TGI (TK-10 renal) was > 100 µM. For the same compound, the TGI (M14 melanoma) was > 100 µM.

In the case of `N#Cc1cc2c(n(C3OC(CO)C(O)C(O)C3O)c1=S)CCCCC2` (stereo not given), the TGI (KM12 colon) is reported as > 100 µM, the TGI (NCI-H226 lung) is reported as > 100 µM and the TGI (CAKI-1 renal) is reported as > 100 µM. The TGI (IGROV1 ovarian) was > 100 µM, the TGI (HOP-92 NSCLC) was > 100 µM and the TGI (HOP-62 NSCLC) was > 100 µM. The TGI (SK-MEL-28 melanoma) was > 100 µM, the TGI (RXF 393 renal) was > 100 µM and the TGI (SF-268 CNS) was > 100 µM. The TGI (HL-60(TB) leukemia) was > 100 µM, the TGI (MDA-MB-231 breast) was > 100 µM and the TGI (BT-549 breast) was > 100 µM. The TGI (ACHN renal) was > 100 µM, the TGI (UACC-257 melanoma) was > 100 µM and the TGI (786-0 renal) was > 100 µM. For the same compound, the TGI (UO-31 renal) was > 100 µM, the TGI (SR leukemia) was > 100 µM and the TGI (A498 renal) was > 100 µM. For the same compound, the TGI (OVCAR-4 ovarian) was > 100 µM, the TGI (MCF7 breast) was > 100 µM and the TGI (MALME-3M melanoma) was > 100 µM. The TGI (NCI/ADR-RES ovarian) was > 100 µM, the TGI (RPMI-8226 leukemia) was > 100 µM and the TGI (SK-MEL-2 melanoma) was > 100 µM. For the same compound, the TGI (DU-145 prostate) was > 100 µM, the TGI (LOX IMVI melanoma) was > 100 µM and the TGI (SF-295 CNS) was > 100 µM. For the same compound, the TGI (SF-539 CNS) was > 100 µM, the TGI (SNB-75 CNS) was > 100 µM and the TGI (NCI-H522 lung) was > 100 µM. The TGI (SN12C renal) was > 100 µM, the TGI (SK-MEL-5 melanoma) was > 100 µM and the TGI (NCI-H460 lung) was > 100 µM. For the same compound, the TGI (MOLT-4 leukemia) was > 100 µM, the TGI (COLO 205 colon) was > 100 µM and the TGI (PC-3 prostate) was > 100 µM. The TGI (MDA-N) was > 100 µM, the TGI (A549 NSCLC) was > 100 µM and the TGI (OVCAR-5 ovarian) was > 100 µM. For the same compound, the TGI (MDA-MB-435) was > 100 µM, the TGI (HCC-2998 colon) was > 100 µM and the TGI (U251 CNS) was > 100 µM. The TGI (HS 578T breast) was > 100 µM, the TGI (OVCAR-3 ovarian) was > 100 µM and the TGI (HCT-15 colon) was > 100 µM. For the same compound, the TGI (CCRF-CEM leukemia) was > 100 µM, the TGI (SNB-19 CNS) was > 100 µM and the TGI (K-562 leukemia) was > 100 µM. For the same compound, the TGI (OVCAR-8 ovarian) was > 100 µM, the TGI (UACC-62 melanoma) was > 100 µM and the TGI (NCI-H23 lung) was > 100 µM. The TGI (HT29 colon) was > 100 µM, the TGI (HCT-116 colon) was > 100 µM and the TGI (TK-10 renal) was > 100 µM. For the same compound, the TGI (M14 melanoma) was > 100 µM.

`Oc1c(Cl)ccc2cccnc12` was tested, and the TGI (KM12 colon) was > 100 µM, the TGI (NCI-H226 lung) was 71.2 µM and the TGI (CAKI-1 renal) was > 100 µM. For the same compound, the TGI (IGROV1 ovarian) was 1.86 µM, the TGI (HOP-62 NSCLC) was 59.6 µM and the TGI (SK-MEL-28 melanoma) was > 100 µM. For the same compound, the TGI (RXF 393 renal) was 26.2 µM, the TGI (SK-OV-3 ovarian) was > 100 µM and the TGI (SF-268 CNS) was > 100 µM. The TGI (HL-60(TB) leukemia) was 0.728 µM, the TGI (MDA-MB-231 breast) was > 100 µM and the TGI (BT-549 breast) was > 100 µM. For the same compound, the TGI (ACHN renal) was 35.8 µM, the TGI (UACC-257 melanoma) was 84.2 µM and the TGI (786-0 renal) was 51.4 µM. For the same compound, the TGI (UO-31 renal) was 41.1 µM, the TGI (SR leukemia) was 13.5 µM and the TGI (A498 renal) was 33.1 µM. For the same compound, the TGI (OVCAR-4 ovarian) was > 100 µM, the TGI (MALME-3M melanoma) was > 100 µM and the TGI (NCI/ADR-RES ovarian) was 3.43 µM. For the same compound, the TGI (RPMI-8226 leukemia) was 8.28 µM, the TGI (DU-145 prostate) was > 100 µM and the TGI (LOX IMVI melanoma) was 29.7 µM. It also gave a TGI (SF-295 CNS) of 68.4 µM, a TGI (SF-539 CNS) of 34.7 µM and a TGI (SNB-75 CNS) of 89.6 µM. The TGI (NCI-H522 lung) was 7.78 µM, the TGI (SN12C renal) was 88.5 µM and the TGI (SK-MEL-5 melanoma) was > 100 µM. The TGI (NCI-H460 lung) was 88 µM, the TGI (MOLT-4 leukemia) was 5.76 µM and the TGI (COLO 205 colon) was > 100 µM. The TGI (PC-3 prostate) was > 100 µM, the TGI (MDA-N) was > 100 µM and the TGI (A549 NSCLC) was > 100 µM. The TGI (OVCAR-5 ovarian) was > 100 µM, the TGI (T-47D breast) was 25.8 µM and the TGI (MDA-MB-435) was > 100 µM. For the same compound, the TGI (HCC-2998 colon) was > 100 µM, the TGI (U251 CNS) was > 100 µM and the TGI (HS 578T breast) was > 100 µM. For the same compound, the TGI (OVCAR-3 ovarian) was > 100 µM, the TGI (HCT-15 colon) was > 100 µM and the TGI (EKVX NSCLC) was 39.4 µM. For the same compound, the TGI (SW-620 colon) was > 100 µM, the TGI (CCRF-CEM leukemia) was 2.4 µM and the TGI (SNB-19 CNS) was > 100 µM. The TGI (K-562 leukemia) was 7.56 µM, the TGI (OVCAR-8 ovarian) was > 100 µM and the TGI (UACC-62 melanoma) was 8.09 µM. The TGI (NCI-H23 lung) was > 100 µM, the TGI (HT29 colon) was > 100 µM and the TGI (HCT-116 colon) was 4.56 µM. For the same compound, the TGI (TK-10 renal) was > 100 µM and the TGI (M14 melanoma) was > 100 µM.
